ChEMBL document CHEMBL5104093, “A comprehensive review on β-lapachone: Mechanisms, structural modifications, and therapeutic potentials” (Eur J Med Chem, 2021)
Converted amounts (≈) assume the structure as drawn.

Columns and labels:
[1] = test system: Mycobacterium tuberculosis; test: Antimycobacterial activity against rifampicin resistant Mycobacterium tuberculosis ATCC 35338 assessed as bacterial growth inhibition incubated for 7 days by resazurin dye based microtiter assay; type: functional; conditions: ATCC 35338, 168 h, time 7 day
[2] = test system: Mycobacterium tuberculosis; test: Antimycobacterial activity against rifampicin resistant Mycobacterium tuberculosis ATCC 35822 assessed as bacterial growth inhibition incubated for 7 days by resazurin dye based microtiter assay; type: functional; conditions: ATCC 35822, 168 h, time 7 day

SMILES: Cc1ccc(-c2nc3c([nH]2)c2c(c4ccccc43)OC(C)(C)CC2)cc1
- MIC [1]: 6.25 µg/mL (≈ 18.3 µM)

SMILES: CC1(C)CCc2c(c3ccccc3c3nc(-c4cccc(C(F)(F)F)c4)[nH]c23)O1
- MIC [1]: 1.56 µg/mL (≈ 3.94 µM)

SMILES: COc1ccccc1-c1nc2c([nH]1)c1c(c3ccccc32)OC(C)(C)CC1
- MIC [1]: 1.56 µg/mL (≈ 4.35 µM)

SMILES: C=CCC1Cc2c(c3ccccc3c3nc4ccccc4nc23)OC1(C)C (stereo unspecified)
- MIC [1]: 0.78 µg/mL (≈ 2.2 µM)

SMILES: CC1CCC2C(C1)c1c(c3ccccc3c3nc4ccccc4nc13)OC2(C)C (stereo unspecified)
- MIC [1]: < 6.25 µg/mL

SMILES: Cc1ccccc1-c1nc2c([nH]1)c1c(c3ccccc32)OC(C)(C)CC1
- MIC [1]: 1.56 µg/mL (≈ 4.56 µM)

SMILES: CC1(C)Oc2c(c3nc4ccccc4nc3c3ccccc23)C=C1Br
- MIC [1]: < 6.25 µg/mL

SMILES: CC1(C)CCc2c(c3ccccc3c3nc(-c4ccc([N+](=O)[O-])cc4)[nH]c23)O1
- MIC [2]: 1.56 µg/mL (≈ 4.18 µM)
- MIC [1]: > 100 µg/mL

SMILES: CC1(C)CCc2c(c3ccccc3c3nc(-c4cccc(Br)c4)[nH]c23)O1
- MIC [1]: 1.56 µg/mL (≈ 3.83 µM)

SMILES: CC1(C)CCc2c(c3ccccc3c3nc(-c4cccc(F)c4)[nH]c23)O1
- MIC [1]: 1.56 µg/mL (≈ 4.5 µM)
